Assay results published in publication PMC12844237, “A Novel Quinolone JH62 (E-2-(Tridec-4-en-1-yl)-quinolin-4(1H)-one) from Pseudomonas aeruginosa Exhibits Potent Anticancer Activity” (Microorganisms, 2025).

What was measured:
[1] = test system: non-cancer cells (MEF, AML12, WI-38, and THLE-2); test: WST-1 cell viability, panel of non-cancer cells; assay type: cell-based; details: across non-cancer cells (MEF, AML12, WI-38, and THLE-2)
Protocol: (§1) Cell viability was assessed using the WST-1 assay, based on a previously reported method with slight modifications. Briefly, cells were seeded at 1 × 10^4 cells per well in 96-well plates and then treated with different doses of JH62 or DOX for 0–72 h. The cells used included non-cancer cells (MEF, AML12, WI-38, and THLE-2) and cancer cells (A549, HEPG2, HEP3B, BxPC3, U87, DU145, MCF7, HeLa, and HCT116). The WST-1 reagent (Roche, Shanghai, China) was added to each well (10% vol/vol final concentration), followed by incubation for 3 h at 37 °C. Absorbance at OD450 was measured using a microplate reader (Synergy H1; BioTek Instruments, Winooski, VT, USA).

[2] = test system: BxPC3: human pancreatic cancer cell lines; test: WST-1 cell viability, BxPC3; assay type: cell-based; details: BXPC-3, BxPC3 (pancreatic) cancer cell line
Source text: (§2) Different cells were utilized as follows: MEF: murine embryonic fibroblast (RRID: CVCL_L690); AML12: mouse liver cell lines (RRID: CVCL_0140); WI-38: human lung fibroblast cell lines (RRID: CVCL_0579); THLE-2: human liver epithelial cell lines (RRID: CVCL_3803); A549: human lung cancer cell lines (RRID: CVCL_0023); HEPG2: human liver cancer cell lines (RRID: CVCL_0027); HEP3B: human hepatoma cell lines (RRID: CVCL_0326); BxPC3: human pancreatic cancer cell lines (RRID: CVCL_0186); U87: human primary glioblastoma cell lines (RRID: CVCL_0022); DU145: human prostate cancer cell lines (RRID: CVCL_0105); MCF7: human breast cancer cell lines (RRID: CVCL_0031); HeLa: human cervical cancer cell lines (RRID: CVCL_0030); HCT116: human colon cancer cell lines (RRID: CVCL_0291). Cells were maintained in Dulbecco’s modified Eagle’s medium (DMEM, Gibco) supplemented with L-glutamine (Lonza) (2 mM), 10% fetal bovine serum (FBS, Hyclone), 1 × non-essential amino acids, and sodium pyruvate (1 mM). THLE-2 cells were maintained in THLE-2 Cell Complete Medium (Zhong Qiao Xin Zhou, Shanghai, China). Cells were incubated at 37 °C in a humidified incubator with 5% CO2. […]
(§3) Cell viability was assessed using the WST-1 assay, based on a previously reported method with slight modifications. […] Absorbance at OD450 was measured using a microplate reader (Synergy H1; BioTek Instruments, Winooski, VT, USA).

[3] = test system: pqs gene cluster in ΔpqsA mutant strain; test: Effect of exogenous JH62 on transcription of the pqs gene cluster; assay type: cell-based, Pseudomonas aeruginosa; details: ΔpqsA mutant supplemented with exogenous JH62
Source text: Since the pqs gene cluster is responsible for JH62 biosynthesis, we determined whether JH62 itself could regulate the expression of this cluster, potentially establishing a feedback loop. To this end, we supplemented the JH62-deficient ΔpqsA mutant with exogenous JH62 and assessed the pqs cluster transcription.

[4] = test system: A549: human lung cancer cell lines; test: WST-1 cell viability, A549; assay type: cell-based; details: for IC50: WST-1; for reduced viability: 24 h
Source text: Different cells were utilized as follows: MEF: murine embryonic fibroblast (RRID: CVCL_L690); AML12: mouse liver cell lines (RRID: CVCL_0140); WI-38: human lung fibroblast cell lines (RRID: CVCL_0579); THLE-2: human liver epithelial cell lines (RRID: CVCL_3803); A549: human lung cancer cell lines (RRID: CVCL_0023); HEPG2: human liver cancer cell lines (RRID: CVCL_0027); HEP3B: human hepatoma cell lines (RRID: CVCL_0326); BxPC3: human pancreatic cancer cell lines (RRID: CVCL_0186); U87: human primary glioblastoma cell lines (RRID: CVCL_0022); DU145: human prostate cancer cell lines (RRID: CVCL_0105); MCF7: human breast cancer cell lines (RRID: CVCL_0031); HeLa: human cervical cancer cell lines (RRID: CVCL_0030); HCT116: human colon cancer cell lines (RRID: CVCL_0291). Cells were maintained in Dulbecco’s modified Eagle’s medium (DMEM, Gibco) supplemented with L-glutamine (Lonza) (2 mM), 10% fetal bovine serum (FBS, Hyclone), 1 × non-essential amino acids, and sodium pyruvate (1 mM). THLE-2 cells were maintained in THLE-2 Cell Complete Medium (Zhong Qiao Xin Zhou, Shanghai, China). Cells were incubated at 37 °C in a humidified incubator with 5% CO2. A549 cells were previously stored in the lab and other cell lines were a gift from Haishan Wang’s lab (Institute of Molecular and Cell Biology, Singapore). All cell lines were confirmed to be contamination-free.
as §1

A549 cells [5] = test: DNA fragmentation analysis (genomic DNA electrophoresis); assay type: cell-based, human; details: A549, 24 h; JH62 5–100 µM, DOX 1 and 5 μM
Protocol: Genomic DNA fragmentation was analyzed by agarose gel electrophoresis using previously described methods. A549 cells were seeded in 6 cm tissue culture dishes and cultured overnight. Before treatment with JH62 or DOX, the cells were cultured in DMEM lacking FBS for 16 h. After treatment, the cells were then washed three times with PBS and genomic DNA was extracted using a MasterPure™ DNA Purification Kit (Lucigen Corporation, Middleton, WI, USA). The DNA pellet was airdried and resuspended in Tris-HCl (pH 8.0, 10 mM). DNA samples (2.5 μg) were separated by 1% agarose gel electrophoresis in TAE buffer containing ethidium bromide.

[6] = test system: HEP3B: human hepatoma cell lines; test: WST-1 cell viability, HEP3B; assay type: cell-based; details: HEP3B (liver) cancer cell line
Source text: as §2, §3

[7] = test system: DU145: human prostate cancer cell lines; test: WST-1 cell viability, DU145; assay type: cell-based; details: DU-145, DU145 (prostate) cancer cell line
Source text: as §2, §3

[8] = test system: AML12: mouse liver cell lines; test: WST-1 cell viability, AML12; assay type: cell-based; details: AML12, non-cancer cell line
Source text: as §2, §3

A549 cells [9] = test: Comet assay; assay type: cell-based, human; details: A549, 1, 8, and 12 h
Protocol: Residual DNA damage was detected by alkaline single cell gel electrophoresis (Comet Assay) using the Trevigen Comet Assay Kit (Trevigen, Gaithersburg, MD, USA) following the manufacturer’s protocol with slight modifications. […] The treated cells were trypsinized and pelleted by centrifugation. The cell pellets were washed and resuspended in 2 mL of ice-cold PBS. The cell suspension was mixed 1:10 (vol/vol) with low-melting point agar at 42 °C and immediately pipetted onto a CometSlide™. Slides were incubated at 4 °C in the dark for 30 min, immersed in chilled lysis solution and incubated again at 4 °C for 30 min. Slides were placed in a horizontal electrophoresis chamber and electrophoresed with buffer NaOH (0.3 M) and EDTA (1 mM) at 1 V/cm for 15 min. Samples were dried and stained with Vista Green DNA dye (Cell Biolabs, Singapore). Comet tails were imaged using a model DM 2500 fluorescent microscope (Leica, Wetzlar, Germany) and quantified by Komet 5.5 software (Andor Technology, Belfast, UK). A minimum of 50 cells were scored per treatment. All experiments were performed independently in triplicate.

[10] = test system: MEF: murine embryonic fibroblast; test: WST-1 cell viability, MEF; assay type: cell-based; details: Mus musculus, non-cancer cell line
Source text: as §2, §3

[11] = test system: HEPG2: human liver cancer cell lines; test: WST-1 cell viability, HEPG2; assay type: cell-based; details: HEPG2 (liver) cancer cell line
Source text: as §2, §3

[12] = test system: WI-38: human lung fibroblast cell lines; test: WST-1 cell viability, WI-38; assay type: cell-based; details: WI-38, non-cancer cell line
Source text: as §2, §3

[13] = test system: HeLa: human cervical cancer cell lines; test: WST-1 cell viability, HeLa; assay type: cell-based; details: HeLa (cervical) cancer cell line
Source text: as §2, §3

LC3B in A549 cells = test: Immunofluorescence staining for LC3B; assay type: cell-based, human; details: A549, JH62 over 2–24 h
Source text: We next investigated whether autophagy contributes to JH62-induced cell death.

With CCCCCCCC/C=C/CCCc1cc(=O)c2ccccc2[nH]1 [JH62, E-2-(tridec-4-en-1-yl)-quinolin-4(1H)-one] the IC50 [1] was over 25 µM, the IC50 [2] was 15 ± 0.4 µM and the pqsH transcription [3] was “unaffected”. For the same compound, the “transcription of pqsA, pqsB, pqsC, pqsD, and pqsE” value [3] was “markedly upregulated”, the IC50 ([4]; A549 (lung) cancer cell line) was 14.8 ± 0.1 µM and the reduced viability ([4]; A549, 12.5 μM) was 20%. It also gave a viability decreased ([4]; A549, 12.5 μM, 32 h) of 32%, a viability decreased ([4]; A549, 12.5 μM, 48 h) of 19% and a reduced viability ([4]; A549, 25 μM) of 48%. It also gave a viability decreased ([4]; A549, 25 μM, 32 h) of 65%, a viability decreased ([4]; A549, 25 μM, 48 h) of 74% and a reduced viability ([4]; A549, 50 μM) of 78%. The viability decreased ([4]; A549, 50 μM, 32 h) was 84%, the viability decreased ([4]; A549, 50 μM, 48 h) was 92% and the IC50 ([4]; Homo sapiens, A549, A549 (lung) cancer cell line) was 15 µM. For the same compound, the “genomic DNA integrity (electrophoresis)” value (A549 cells [5]) was “genomic DNA integrity remained unchanged”, the IC50 [6] was 10.8 ± 0.4 µM and the IC50 [7] was 13.8 ± 3.3 µM. For the same compound, the IC50 [8] was 37.1 ± 0.7 µM, the comet tail analysis (A549 cells [9]) was “maintenance of DNA integrity” and the IC50 [10] was 47.2 ± 4.8 µM. It also gave an IC50 [11] of 17.2 ± 0.6 µM, an IC50 [12] of 44.1 ± 0.4 µM and an IC50 [13] of 13.6 ± 2.7 µM. The “LC3B puncta (autophagosome formation)” value (LC3B in A549 cells) was “progressively increased both the intensity and number of LC3B puncta”.
